The target in data set [1] is T1, recombinant human mGluR4a receptors (Homo sapiens, UniProt Q14833).
T1 construct: expressed in transfected cells
In words: mGluR4 assay on HEK-expressing human mGluR4: fluorescent cell based Ca2+ mobilization assay (FLIPR, Fluo-4). The settings on record: enhancement of EC25 glutamate response in HEK-293 cells expressing hmGluR4; mean of at least three independent experiments performed in duplicate; read-out: Ca^2+ Flux (mean EC50). The text has this: mGluR4 Assay on HEK-Expressing Human mGluR4 The compounds of the present invention are positive allosteric modulators of mGluR4 receptor. Their activity was examined on recombinant human mGluR4a receptors by detecting changes in intracellular Ca^2+ concentration, using the fluorescent Ca^2+-sensitive dye Fluo-4-(AM) and a Fluorometric Imaging Plate Reader (FLIPR, Molecular Devices, Sunnyvale, Calif.). The cDNA encoding the human metabotropic glutamate receptor (hmGluR4), (accession number NM_000841.1, NCBI Nucleotide database browser), was subcloned into an expression vector containing also the hygromycin resistance gene. In parallel, the cDNA encoding a G protein allowing redirection of the activation signal to intracellular calcium flux was subcloned into a different expression vector containing also the puromycin resistance gene. Transfection of both these vectors into HEK293 cells with PolyFect reagent (Qiagen) according to supplier's protocol, and hygromycin and puromycin treatment allowed selection of antibiotic resistant cells which had integrated stably one or more copies of the plasmids. Positive cellular clones expressing hmGluR4 were identified in a functional assay measuring changes in calcium fluxes in response to glutamate or selective known mGluR4 orthosteric agonists and antagonists. HEK-293 cells expressing hmGluR4 were maintained in media containing DMEM, dialyzed Fetal Calf Serum (10%), Glutamax™ (2 mM), Penicillin (100 units/mL), Streptomycin (100 μg/mL), Geneticin (100 μg/mL) and Hygromycin-B (40 μg/mL) and puromycin (1 μg/mL) at 37° C./5% CO2. Human mGluR4 HEK-293 cells were plated out 24 hours prior to FLIPR^384 assay in black-walled, clear-bottomed, poly-L-ornithine-coated 384-well plates at a density of 25,000 cells/well in a glutamine/glutamate free DMEM medium containing foetal bovine serum (10%), penicillin (100 units/mL) and streptomycin (100 μg/mL) at 37° C./5% CO2. On the day of the assay, the medium was aspirated and the cells were loaded with a 3 μM solution of Fluo4-AM (LuBioScience, Lucerne, Switzerland) in 0.03% pluronic acid. After 1 hour at 37° C./5% CO2, the non incorporated dye was removed by washing cell plate with the assay buffer and the cells were left in the dark at room temperature for […] before testing. All assays were performed in a pH 7.4 buffered-solution containing 20 mM HEPES, 143 mM NaCl, 6 mM KCl, 1 mM MgSO4, 1 mM CaCl2, 0.125 mM sulfapyrazone and 0.1% glucose. After 10 s of basal fluorescence recording, various concentrations of the compounds of the invention were added to the cells. Changes in fluorescence levels were first monitored for 180 s in order to detect any agonist activity of the compounds. Then the cells were stimulated by an EC25 glutamate concentration for an additional 110 s in order to measure enhancing activities of the compounds of the invention. EC25 glutamate concentration is the concentration giving 25% of the maximal glutamate response. The concentration-response curves of representative compounds of the present invention were generated using the Prism GraphPad software (Graph Pad Inc, San Diego, USA). The curves were fitted to a four-parameter logistic equation: (Y=Bottom+(Top−Bottom)/(1+10^((Log EC50−X)*Hill Slope) allowing the determination of EC50 values. The Table 3 below represents the mean EC50 obtained from at least three independent experiments of selected molecules performed in duplicate.
For orientation: A change in cytosolic calcium serves as a functional read-out for many receptors and channels.

Values joined by “and” are separate entries in the source; they are usually repeats but may differ in a detail not shown here. Identical values can stand only once.

T1 sequence (Q14833 33-912): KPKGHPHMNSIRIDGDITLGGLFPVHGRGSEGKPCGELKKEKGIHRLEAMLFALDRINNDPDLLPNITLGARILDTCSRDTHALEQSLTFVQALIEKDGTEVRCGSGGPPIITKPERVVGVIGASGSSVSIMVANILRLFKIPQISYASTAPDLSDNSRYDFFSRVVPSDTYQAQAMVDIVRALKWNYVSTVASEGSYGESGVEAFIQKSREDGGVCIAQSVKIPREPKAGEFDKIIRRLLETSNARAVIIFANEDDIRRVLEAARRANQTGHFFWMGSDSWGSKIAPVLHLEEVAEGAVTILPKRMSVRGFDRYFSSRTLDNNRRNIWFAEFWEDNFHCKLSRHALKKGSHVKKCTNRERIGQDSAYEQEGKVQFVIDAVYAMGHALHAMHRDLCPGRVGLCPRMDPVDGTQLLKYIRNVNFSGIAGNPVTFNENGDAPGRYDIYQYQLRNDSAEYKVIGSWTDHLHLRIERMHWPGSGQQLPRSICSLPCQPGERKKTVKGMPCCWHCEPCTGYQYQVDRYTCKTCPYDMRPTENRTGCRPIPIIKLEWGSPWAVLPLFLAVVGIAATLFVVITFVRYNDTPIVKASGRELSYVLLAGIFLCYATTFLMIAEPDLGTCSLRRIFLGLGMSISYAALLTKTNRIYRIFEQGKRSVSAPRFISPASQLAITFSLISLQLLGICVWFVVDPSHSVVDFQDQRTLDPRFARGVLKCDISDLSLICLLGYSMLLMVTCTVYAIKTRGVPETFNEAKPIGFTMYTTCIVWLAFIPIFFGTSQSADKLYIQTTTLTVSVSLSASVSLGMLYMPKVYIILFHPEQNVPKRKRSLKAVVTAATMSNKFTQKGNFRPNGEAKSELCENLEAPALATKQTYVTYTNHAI

The melting point is the temperature, or range, at which the solid turns liquid. A word on the EC50: it is the midpoint of the concentration-response curve. For the molecule `Fc1cccc(Nc2nc(-c3cn[nH]c3)c(F)s2)n1` [Compound 1-10, 5-Fluoro-N-(6-fluoropyridin-2-yl)-4-(1H-pyrazol-4-yl)thiazol-2-amine], the melting point turned out to be 237 °C. In data set [1], the EC50 was less than 100 nM.
On to `N#Cc1[nH]ncc1-c1csc(Nc2ccccn2)n1` [Compound 1-26, 4-(2-(Pyridin-2-ylamino)thiazol-4-yl)-1H-pyrazole-5-carbonitrile], for which the EC50 in data set [1] lay within 100 to 1000 nM.
Turning to `COCc1sc(Nc2ccccn2)nc1-c1cn[nH]c1` [Compound 1-18, 5-(Methoxymethyl)-4-(1H-pyrazol-4-yl)-N-(pyridin-2-yl)thiazol-2-amine], the EC50 in data set [1] was in the range of 100 to 1000 nM.
Regarding `c1ccc(Nc2nc(-c3cn[nH]c3)c(CN3CCOCC3)s2)nc1` [Compound 1-21, 5-(Morpholinomethyl)-4-(1H-pyrazol-4-yl)-N-(pyridin-2-yl)thiazol-2-amine], the EC50 in data set [1] was in the range of 1000 to 10000 nM.
For the molecule `Cc1sc(Nc2ncccn2)nc1-c1cn[nH]c1` [Compound 1-16, 5-Methyl-4-(1H-pyrazol-4-yl)-N-(pyrimidin-2-yl)thiazol-2-amine], the melting point was 298 to 300 °C. The EC50 in data set [1] is less than 100 nM.
Consider `CC(=O)NCn1cc(-c2nc(Nc3ccccn3)sc2C)cn1` [Compound 1-61, N-((4-(5-Methyl-2-(pyridin-2-ylamino)thiazol-4-yl)-1H-pyrazol-1-yl)methyl)acetamide], for which the melting point was 175 °C and 180 °C. Moreover, the EC50 in data set [1] fell in the range of 1000 to 10000 nM.
The molecule `Cc1sc(Nc2cccc(C#N)n2)nc1-c1cn[nH]c1` [Compound 1-1, 6-(5-Methyl-4-(1H-pyrazol-4-yl)thiazol-2-ylamino)picolinonitrile] came in with a melting point of 331 °C. For the same molecule, in data set [1], the EC50 fell in the range of 100 to 1000 nM.
As for `Cn1ccc(Nc2nc(-c3cn[nH]c3)cs2)n1` [Compound 1-27, N-(1-Methyl-1H-pyrazol-3-yl)-4-(1H-pyrazol-4-yl)thiazol-2-amine], the melting point was 209 to 211 °C. Moreover, the EC50 in data set [1] lay in the range of 1000 to 10000 nM.
With `CN(C)c1[nH]ncc1-c1csc(Nc2ncccn2)n1` [Compound 1-65, 4-(5-(Dimethylamino)-1H-pyrazol-4-yl)-N-(pyrimidin-2-yl)thiazol-2-amine], in data set [1], the EC50 lay in the range of 1000 to 10000 nM.
As to `Clc1[nH]ncc1-c1csc(Nc2ccccn2)n1` [Compound 1-17, 4-(5-Chloro-1H-pyrazol-4-yl)-N-(pyridin-2-yl)thiazol-2-amine], the melting point was in the range of 299 to 304 °C. Moreover, in data set [1], the EC50 was less than 100 nM.
`Cc1ccnc(Nc2nc(-c3cn[nH]c3)c(Cl)s2)n1` [Compound 1-49, 5-Chloro-N-(4-methylpyrimidin-2-yl)-4-(1H-pyrazol-4-yl)thiazol-2-amine] returned a melting point of 243 °C.
`Cc1sc(Nc2ncccc2I)nc1-c1cn[nH]c1` [Compound 1-15, N-(3-Iodopyridin-2-yl)-5-methyl-4-(1H-pyrazol-4-yl)thiazol-2-amine] gave a melting point of 243 to 245 °C.
The molecule `Fc1ccc(Nc2nc(-c3cn[nH]c3)c(F)s2)nc1` [Compound 1-28, 5-Fluoro-N-(5-fluoropyridin-2-yl)-4-(1H-pyrazol-4-yl)thiazol-2-amine] returned a melting point of 239 °C.
In the case of `Cc1sc(Nc2nccc(C3CC3)n2)nc1-c1cn[nH]c1` [Compound 1-62, N-(4-Cyclopropylpyrimidin-2-yl)-5-methyl-4-(1H-pyrazol-4-yl)thiazol-2-amine], the melting point was 228 to 231 °C.
`Cc1ccnc(Nc2nc(-c3cn[nH]c3)cs2)n1` [Compound 1-31, N-(4-Methylpyrimidin-2-yl)-4-(1H-pyrazol-4-yl)thiazol-2-amine]: the melting point fell in the range of 307 to 310 °C.
The molecule `Cc1sc(Nc2cccc(I)n2)nc1-c1cn[nH]c1` [Compound 1-14, N-(6-Iodopyridin-2-yl)-5-methyl-4-(1H-pyrazol-4-yl)thiazol-2-amine] gave a melting point of more than 260 °C.
On the same count and under the same terms, the result for `Cc1sc(Nc2ccccn2)nc1-c1cnn(C(=O)N(C)C)c1` [Compound 1-36, N,N-Dimethyl-4-(5-methyl-2-(pyridin-2-ylamino)thiazol-4-yl)-1H-pyrazole-1-carboxamide] reads 181 to 185 °C.
Consider `c1ccc(Nc2nc(-c3c[nH]nc3CC3CC3)cs2)nc1` [Compound 1-6, 4-(3-(Cyclopropylmethyl)-1H-pyrazol-4-yl)-N-(pyridin-2-yl)thiazol-2-amine], for which, in data set [1], the EC50 lay within 100 to 1000 nM.
`c1ccc(Nc2nc(-c3cn[nH]c3)c(N3CCCC3)s2)nc1` [Compound 1-8, 4-(1H-Pyrazol-4-yl)-N-(pyridin-2-yl)-5-(pyrrolidin-1-yl)thiazol-2-amine] gave a melting point of 209 °C. In addition, the EC50 in data set [1] was in the range of 1000 to 10000 nM.

For the origin of these results see patent US9073907B2, “Thiazoles derivatives and their use as positive allosteric modulators of metabotropic glutamate receptors” (Addex Pharma S.A., priority 2009, dated 2015).
